From patent US20130281449A1, “Oxazine Derivatives and their Use in the Treatment of Neurological Disorders” (NOVARTIS AG, priority 2011, published 2013)
Structures can show the parent of a compound that is named as a salt.

Tests used:
Human BACE-1 = Human BACE-1 (Homo sapiens, UniProt P56817); test: Test 1: Inhibition of Human BACE-1; assay type: biochemical; conditions: mean IC50 values in Test 1; recombinant BACE-1, pH 4.5
Procedure: Test 1: Inhibition of Human BACE-1
IC50 values are calculated from percentage of inhibition of BACE-1 activity as a function of the test compound concentration.

[1] = test system: Cellular Release of Amyloid Peptide 1-40; test: Test 4: Inhibition of Cellular Release of Amyloid Peptide 1-40; assay type: cell-based, Chinese hamster; conditions: Cricetulus griseus, 24 h; read-out: Amyloid-β1-40 release IC50
Procedure: Chinese hamster ovary cells are transfected with the human gene for amyloid precursor protein. The cells are plated at a density of 8000 cells/well into 96-well microtiter plates and cultivated for 24 hours in DMEM cell culture medium containing 10% FCS. The test compound is added to the cells at various concentrations, and the cells are cultivated for 24 hours in the presence of the test compound. […] The potency of the compound is calculated from the percentage of inhibition of amyloid peptide release as a function of the test compound concentration.

Sequence of Human BACE-1 (P56817 46-457 limits assumed): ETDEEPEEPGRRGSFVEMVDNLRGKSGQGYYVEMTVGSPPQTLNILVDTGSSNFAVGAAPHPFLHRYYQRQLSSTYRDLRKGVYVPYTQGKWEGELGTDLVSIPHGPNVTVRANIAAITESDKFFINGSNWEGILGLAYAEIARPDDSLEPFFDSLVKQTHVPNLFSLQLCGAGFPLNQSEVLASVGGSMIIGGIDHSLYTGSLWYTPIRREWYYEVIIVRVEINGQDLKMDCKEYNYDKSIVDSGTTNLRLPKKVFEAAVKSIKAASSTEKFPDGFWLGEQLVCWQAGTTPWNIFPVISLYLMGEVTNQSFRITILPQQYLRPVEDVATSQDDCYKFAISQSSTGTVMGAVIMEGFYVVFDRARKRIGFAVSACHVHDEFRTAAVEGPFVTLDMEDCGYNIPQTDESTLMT

| SMILES | IC50 (Human BACE-1) | IC50 [1] |
| --- | --- | --- |
| C#CCOc1cnc(C(=O)Nc2ccc(F)c([C@]3(C(F)F)COCC(N)=N3)c2)c(N)n1 [Example 4, 3-Amino-5-prop-2-ynyloxy-pyrazine-2-carboxylic acid [3-((R)-5-amino-3-difluoromethyl-3,6-dihydro-2H-[1,4]oxazin-3-yl)-4-fluoro-phenyl]-amide] | 2 nM | 1 nM |
| C[C@@]1(c2cc(NC(=O)c3ncc(C(F)F)cc3N)ccc2F)CO[C@@](C)(C(F)(F)F)C(N)=N1 [Example 29, 3-Amino-5-difluoromethyl-pyridine-2-carboxylic acid [3-((3R,6R)-5-amino-3,6-dimethyl-6-trifluoromethyl-3,6-dihydro-2H-[1,4]oxazin-3-yl)-4-fluoro-phenyl]-amide] | 14 nM | 10 nM |
| N#Cc1cnc(C(=O)Nc2ccc(F)c([C@]3(C(F)F)COCC(N)=N3)c2)c(N)c1 [Example 11, 3-Amino-5-cyano-pyridine-2-carboxylic acid [3-((R)-5-amino-3-difluoromethyl-3,6-dihydro-2H-[1,4]oxazin-3-yl)-4-fluoro-phenyl]-amide] | 18 nM | 5 nM |
| [2H]C([2H])([2H])Oc1cnc(C(=O)Nc2ccc(F)c([C@]3(C(F)F)COCC(N)=N3)c2)c(N)n1 [Example 3, 3-Amino-5-tris-deutero-methoxy-pyrazine-2-carboxylic acid [3-((R)-5-amino-3-difluoromethyl-3,6-dihydro-2H-[1,4]oxazin-3-yl)-4-fluoro-phenyl]-amide] | 25 nM | 9 nM |
| Cc1cc(C(F)F)cnc1C(=O)Nc1ccc(F)c([C@]2(C)CO[C@@](C)(C(F)(F)F)C(N)=N2)c1 [Example 27, 5-Difluoromethyl-3-methyl-pyridine-2-carboxylic acid [3-((3R,6R)-5-amino-3,6-dimethyl-6-trifluoromethyl-3,6-dihydro-2H-[1,4]oxazin-3-yl)-4-fluoro-phenyl]-amide hydrochloride] | 16 nM | 10 nM |
| [2H]C([2H])([2H])OCc1cc(C#N)cnc1C(=O)Nc1ccc(F)c([C@]2(C)CO[C@@](C)(C(F)(F)F)C(N)=N2)c1 [Example 31, 5-Cyano-3-trideuteromethoxymethyl-pyridine-2-carboxylic acid [3-((3R,6R)-5-amino-3,6-dimethyl-6-trifluoromethyl-3,6-dihydro-2H-[1,4]oxazin-3-yl)-4-fluoro-phenyl]-amide] | 11 nM | 9 nM |
| [2H]C([2H])([2H])OCc1cc(F)cnc1C(=O)Nc1ccc(F)c([C@]2(C(F)F)COCC(N)=N2)c1 [Example 9, 5-Fluoro-3-trideuteromethoxymethyl-pyridine-2-carboxylic acid [3-((R)-5-amino-3-difluoromethyl-3,6-dihydro-2H-[1,4]oxazin-3-yl)-4-fluoro-phenyl]-amide] | 110 nM | 36 nM |
| C[C@@]1(c2cc(NC(=O)c3ncc(C(F)(F)F)cc3Cl)ccc2F)CO[C@@](C)(C(F)(F)F)C(N)=N1 [Example 34, 3-Chloro-5-trifluoromethyl-pyridine-2-carboxylic acid [3-((3R,6R)-5-amino-3,6-dimethyl-6-trifluoromethyl-3,6-dihydro-2H-[1,4]oxazin-3-yl)-4-fluoro-phenyl]-amide] | 16 nM | 10 nM |
| Cc1cc(Cl)cnc1C(=O)Nc1ccc(F)c(C2(C)COC(CF)(CF)C(N)=N2)c1 (stereo not shown) [Example 41, 5-Chloro-3-methyl-pyridine-2-carboxylic acid [3-(5-amino-6,6-bis-fluoromethyl-3-methyl-3,6-dihydro-2H-[1,4]oxazin-3-yl)-4-fluoro-phenyl]-amide] | 48 nM | 13 nM |
| COc1ccc(C(=O)Nc2ccc(F)c([C@]3(C)CO[C@@](C)(C(F)(F)F)C(N)=N3)c2)c(N)n1 [Example 44, 2-Amino-N-[3-((3R,6R)-5-amino-3,6-dimethyl-6-trifluoromethyl-3,6-dihydro-2H-[1,4]oxazin-3-yl)-4-fluoro-phenyl]-6-methoxy-nicotinamide] | 220 nM | 79 nM |
| COc1cnc(C(=O)Nc2ccc(F)c([C@]3(C)CO[C@@](C)(C(F)(F)F)C(N)=N3)c2)c(Cl)c1 [Example 18, 3-Chloro-5-methoxy-pyridine-2-carboxylic acid [3-((3R,6R)-5-amino-3,6-dimethyl-6-trifluoromethyl-3,6-dihydro-2H-[1,4]oxazin-3-yl)-4-fluoro-phenyl]-amide hydrochloride] | 20 nM | 9 nM |
| C[C@@]1(c2cc(NC(=O)c3ncc(C(F)F)cc3Cl)ccc2F)CO[C@@](C)(C(F)(F)F)C(N)=N1 [Example 32, 3-Chloro-5-difluormethyl-pyridine-2-carboxylic acid [3-((3R,6R)-5-amino-3,6-dimethyl-6-trifluoromethyl-3,6-dihydro-2H-[1,4]oxazin-3-yl)-4-fluoro-phenyl]-amide] | 20 nM | 11 nM |
| [2H]C([2H])([2H])OCc1cc(OC([2H])([2H])[2H])cnc1C(=O)Nc1ccc(F)c([C@]2(C(F)F)COCC(N)=N2)c1 [Example 10, 5-Trideuteromethoxy-3-trideuteromethoxymethyl-pyridine-2-carboxylic acid [3-((R)-5-amino-3-difluoromethyl-3,6-dihydro-2H-[1,4]oxazin-3-yl)-4-fluoro-phenyl]-amide] | 190 nM | 32 nM |
| Cc1cc(C(F)F)cnc1C(=O)Nc1ccc(F)c([C@]2(C(F)F)COCC(N)=N2)c1 [Example 8, 5-Difluoromethyl-3-methyl-pyridine-2-carboxylic acid [3-((R)-5-amino-3-difluoromethyl-3,6-dihydro-2H-[1,4]oxazin-3-yl)-4-fluoro-phenyl]-amide hydrochloride] | 54 nM | 8 nM |
| COc1ccc(C(=O)Nc2ccc(F)c([C@]3(C)CO[C@@](C)(C(F)(F)F)C(N)=N3)c2)c(Cl)n1 [Example 45, N-[3-((3R,6R)-5-Amino-3,6-dimethyl-6-trifluoromethyl-3,6-dihydro-2H-[1,4]oxazin-3-yl)-4-fluoro-phenyl]-2-chloro-6-methoxy-nicotinamide] | 2600 nM | 720 nM |
| Cc1nc(C(=O)Nc2ccc(F)c([C@]3(C)CO[C@@](C)(C(F)(F)F)C(N)=N3)c2)c(C)o1 [Example 23, 2,5-Dimethyl-oxazole-4-carboxylic acid [3-((3R,6R)-5-amino-3,6-dimethyl-6-trifluoromethyl-3,6-dihydro-2H-[1,4]oxazin-3-yl)-4-fluoro-phenyl]-amide hydrochloride] | 67 nM | 160 nM |
| Cc1cc(C#N)cnc1C(=O)Nc1ccc(F)c(C2(C)COC(CF)(CF)C(N)=N2)c1 (racemic) [Example 37, 5-Cyano-3-methyl-pyridine-2-carboxylic acid [3-(5-amino-6,6-bis-fluoromethyl-3-methyl-3,6-dihydro-2H-[1,4]oxazin-3-yl)-4-fluoro-phenyl]-amide] | – | 4 nM |
| Cc1cc(C#N)cnc1C(=O)Nc1cc(F)c(F)c([C@]2(C(F)F)COCC(N)=N2)c1 [Example 14, 5-Cyano-3-methyl-pyridine-2-carboxylic acid [3-((R)-5-amino-3-difluoromethyl-3,6-dihydro-2H-[1,4]oxazin-3-yl)-4,5-difluoro-phenyl]-amide] | 20 nM | 9 nM |
| Cc1cc(C#N)cnc1C(=O)Nc1ccc(F)c([C@]2(CF)COC(CF)(CF)C(N)=N2)c1 [Example 42, 5-Cyano-3-methyl-pyridine-2-carboxylic acid [3-((R)-5-amino-3,6,6-tris-fluoromethyl-3,6-dihydro-2H-[1,4]oxazin-3-yl)-4-fluoro-phenyl]-amide] | 12 nM | 13 nM |
| [2H]C([2H])([2H])OC([2H])([2H])c1cc2c(Cl)c[nH]c2nc1C(=O)Nc1ccc(F)c([C@]2(C)CO[C@@](C)(C(F)(F)F)C(N)=N2)c1 [Example 33, 3-Chloro-5-trideuteromethoxy-dideuteromethyl-1H-pyrrolo[2,3-b]pyridine-6-carboxylic acid [3-((3R,6R)-5-amino-3,6-dimethyl-6-trifluoromethyl-3,6-dihydro-2H-[1,4]oxazin-3-yl)-4-fluoro-phenyl]-amide] | 13 nM | 41 nM |
| NC1=N[C@@](c2cc(NC(=O)c3ccc4c(Cl)c[nH]c4n3)ccc2F)(C(F)F)COC1 [Example 5, 3-Chloro-1H-pyrrolo[2,3-b]pyridine-6-carboxylic acid [3-((R)-5-amino-3-difIuoromethyl-3,6-dihydro-2H-[1,4]oxazin-3-yl)-4-fluoro-phenyl]-amide] | 12 nM | 14 nM |
| C[C@@]1(c2cc(NC(=O)c3ncc(C(F)F)nc3N)ccc2F)CO[C@@](C)(C(F)(F)F)C(N)=N1 [Example 28, 3-Amino-5-difLuoromethyl-pyrazine-2-carboxylic acid [3-((3R,6R)-5-amino-3,6-dimethyl-6-trifluoromethyl-3,6-dihydro-2H-[1,4]oxazin-3-yl)-4-fluoro-phenyl]-amide] | 10 nM | 8 nM |
| NC1=N[C@@](c2cc(NC(=O)c3ncc(C(F)F)cc3N)ccc2F)(C(F)F)COC1 [Example 12, 3-Amino-5-difluoromethyl-pyridine-2-carboxylic acid [3-((R)-5-amino-3-difluoromethyl-3,6-dihydro-2H-[1,4]oxazin-3-yl)-4-fluorophenyl]-amide] | 38 nM | 10 nM |
| Cc1cc(F)cnc1C(=O)Nc1ccc(F)c([C@]2(C)CO[C@@](C)(C(F)(F)F)C(N)=N2)c1 [Example 35, 5-Fluoro-3-methyl-pyridine-2-carboxylic acid [3-((3R,6R)-5-amino-3,6-dimethyl-6-trifluoro-methyl-3,6-dihydro-2H-[1,4]oxazin-3-yl)-4-fluoro-phenyl]-amide] | – | 88 nM |
